Assay results taken from patent EP4778922A1, “BICYCLIC COMPOUND, AND PREPARATION METHOD THEREFOR AND PHARMACEUTICAL USE THEREOF” (Shanghai Jeyou Pharmaceutical Co., Ltd., priority 2023, dated 2025).

What was measured:
22RV1 cells = assay: Cell proliferation inhibition assay in 22RV1 cells (CellTiter-Glo, 7 days); assay type: cell-based, human; details: Homo sapiens
Method: • 1. The human prostate cancer cell lines 22RV1 and LNCaP were purchased from ATCC. […] The cell concentration was adjusted to an appropriate concentration (determined based on the results of cell density optimization experiments), and the cells were seeded into a 96-well plate. A 100 µL cell suspension was added, resulting in 3000 cells per well. […] On the second day, for 22Rv1 cells, test compounds at different concentrations were added, and the cells were incubated at 37°C in a 5% CO2 incubator for 7 days; for LNCaP cells, test compounds at different concentrations were added first, and after 1 hour of treatment, 0.2 nM DHT was added. The cells were then incubated at 37°C in a 5% CO2 incubator for 7 days. • 4. After the incubation period, a volume of CellTiter-Glo detection reagent equal to the volume of the culture medium was added to each well. The plate was shaken and mixed thoroughly for 5 minutes, then incubated at room temperature for 10 minutes. Readings were taken using a PerkinElmer EnVision microplate reader. • 5.
The IC50 curve was fitted and the IC50 value was calculated using the software GraphPad Prism 8 with the calculation formula XY-analysis/Nonlinear regression (curve fit)/Dose response-Inhibition/log (inhibitor) vs. response-Variable slope (four parameters).

[1] = Mouse pharmacokinetic test; assay type: in vivo, ICR mice; details: plasma, po, 30 mg/kg, PO-30mpk; for Tmax: read-out: Tmax
Method: Formulation preparation: The dosing solutions were prepared on the day of administration.
Six healthy male naive ICR mice weighing 25-30 g were selected and divided into two groups (intravenous and oral groups), with three mice in each group, and administered a single dose. […] Feeding was resumed 4 h after administration. Timing was initiated following intravenous and oral administration. […] The collected whole blood was briefly vortexed twice for mixing, placed on wet ice, and centrifuged at 4°C and 8000 rpm for 5 min within 1 h. The supernatant plasma was collected and stored at -80°C until processing and analysis. Table 3: Pharmacokinetics in mice

IC50 (22RV1 cells; 168 h) [µM]	SMILES	IC50 (22RV1 cells; 22Rv1, 168 h) [µM]	AUC(0-inf) [1] [µg·h/mL]	Cmax [1] [ng/mL]	half-life [1] [h]	Tmax [1] [h]
	CC(C)(c1ccc(-c2ccc(OCc3ccnc(N=S(C)(C)=O)n3)cc2)cc1)c1cc(Cl)c(OCCCl)c(C#N)c1 [Compound 44]	0.94	219	11700	9.35	4.67
	CC(C)(c1ccc(-c2ccc(OC3CCN(c4ccnc(P(C)(C)=O)n4)CC3)nc2)cc1)c1cc(Cl)c(OCCCl)c(C#N)c1 [Compound 103]	0.69	247	18100	7.5	4
	COc1c(Cl)cc(C(C)(C)c2ccc(-c3ccc(OCc4ccnc(P(C)(C)=O)n4)cc3)cc2)cc1C#N [Compound 237]	0.86	213	16200	4.2	3
	CC(C)(c1ccc(-c2ccc(OCc3ncc(P(C)(C)=O)s3)cc2)cc1)c1cc(Cl)c(OCCCl)c(C#N)c1 [Compound 221]	1.04	464	19300	10.4	5
	CC(C)(c1ccc(-c2ccc(OCc3ccnc(N4CC[C@H](S(C)(=O)=O)C4)n3)cc2)cc1)c1cc(Cl)c(OCCCl)c(C#N)c1 [Compound 202]	0.66	202	8880	18.5	4
	CC(C)(c1ccc(-c2ccc(OCc3ccnc(C4CN(S(C)(=O)=O)C4)n3)cc2)cc1)c1cc(Cl)c(OCCCl)c(C#N)c1 [Compound 145]	0.6	273	15800	15.3	4
	CNS(=O)(=O)C1CN(c2nccc(COc3ccc(-c4ccc(C(C)(C)c5cc(Cl)c(OCCCl)c(C#N)c5)cc4)nc3)n2)C1 [Compound 258]	0.63	323	39200	5.2	3
	CC(C)(c1ccc(-c2ccc(OCc3ccnc(N4CC5(COC5)C4)n3)cn2)cc1)c1cc(Cl)c(OCCCl)c(C#N)c1 [Compound 82]	0.86	171	24900	8.3	2.7
	CC(C)(c1ccc(-c2ccc(OCC3CN(c4ccnc(P(C)(C)=O)n4)C3)cc2)cc1)c1cc(Cl)c(OCCCl)c(C#N)c1 [Compound 70]	0.5	187	14700	5.13	4
	CC(C)(c1ccc(-c2ccc(OCc3ccnc(N4CC(S(N)(=O)=O)C4)n3)cn2)cc1)c1cc(Cl)c(OCCCl)c(C#N)c1 [Compound 180]	0.8	309	34600	5.17	3
0.65	CC(C)(c1ccc(-c2ccc(OCc3ccnc(N=S4(=O)CCN(CC(F)(F)F)CC4)n3)cn2)cc1)c1cc(Cl)c(OCCCl)c(C#N)c1 [Compound 139]					
0.11	CC(C)(c1ccc(-c2ccc(OCC3CC(CN4CC5(C4)CS(=O)(=O)C5)C3)cc2)cc1)c1cc(Cl)c(OCCCl)c(C#N)c1 (stereo not drawn) [Compound 80]					
1.23	CC(C)(c1ccc(-c2ccc(OCC3CN(C4CC4)C3)cc2)cc1)c1cc(Cl)c(OCCCl)c(C#N)c1 [Compound 172]					
0.19	CC(C)(c1ccc(-c2ccc(OCc3ccnc(OC4CC5(COC5)C4)n3)cc2)cc1)c1cc(Cl)c(OCCCl)c(C#N)c1 [Compound 201]					
1.46	CC(C)(c1ccc(-c2ccc(OCc3ccnc(N=S4(=O)CCCC4)n3)nc2)cc1)c1cc(Cl)c(OCCCl)c(C#N)c1 [Compound 18]					
0.33	CC(C)(c1ccc(-c2ccc(OCc3ccnc(P(C)(C)=O)n3)cc2)cc1)c1cc(Cl)c(OCC2CCC2)c(C#N)c1 [Compound 152]					
0.79	CC(C)(c1ccc(-c2ccc(OCc3ccnc(N=S4(=O)CCN(CCC(F)(F)F)CC4)n3)cc2)cc1)c1cc(Cl)c(OCCCl)c(C#N)c1 [Compound 241]					
